{
  "source": "paper PMC11976424",
  "about": "(Journal of Advanced Research, 2024)",
  "key": {"[1]": {"biological_target": "AMPKα1β1γ1 (AMP-activated protein kinase) (Homo sapiens, UniProt Q13131)", "sequence (Q13131 whole entry)": "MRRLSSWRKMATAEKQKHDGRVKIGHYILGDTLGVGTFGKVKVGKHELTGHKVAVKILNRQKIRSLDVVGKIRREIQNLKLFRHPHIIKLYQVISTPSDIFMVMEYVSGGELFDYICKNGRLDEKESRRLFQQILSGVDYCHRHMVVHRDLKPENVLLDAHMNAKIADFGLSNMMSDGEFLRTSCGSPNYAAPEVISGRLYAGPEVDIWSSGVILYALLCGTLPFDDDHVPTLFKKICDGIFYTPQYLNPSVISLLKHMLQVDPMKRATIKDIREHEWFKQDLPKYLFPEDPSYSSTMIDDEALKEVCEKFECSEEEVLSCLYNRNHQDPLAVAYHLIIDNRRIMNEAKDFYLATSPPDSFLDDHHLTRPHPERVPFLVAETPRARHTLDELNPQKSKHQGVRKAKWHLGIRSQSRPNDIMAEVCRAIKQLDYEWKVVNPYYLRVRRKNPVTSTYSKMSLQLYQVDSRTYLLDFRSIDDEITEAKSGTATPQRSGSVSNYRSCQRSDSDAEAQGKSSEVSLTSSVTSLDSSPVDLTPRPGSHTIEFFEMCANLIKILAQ", "sequence (Q9Y478 2-270 partner)": "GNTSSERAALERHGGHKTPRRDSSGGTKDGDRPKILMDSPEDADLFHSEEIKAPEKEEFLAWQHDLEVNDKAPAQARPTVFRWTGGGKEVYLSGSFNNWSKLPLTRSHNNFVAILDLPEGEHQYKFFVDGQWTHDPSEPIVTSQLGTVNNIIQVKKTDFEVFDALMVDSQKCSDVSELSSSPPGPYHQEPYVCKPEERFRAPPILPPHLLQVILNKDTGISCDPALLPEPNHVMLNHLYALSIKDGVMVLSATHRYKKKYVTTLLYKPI", "sequence (P54619 whole entry partner)": "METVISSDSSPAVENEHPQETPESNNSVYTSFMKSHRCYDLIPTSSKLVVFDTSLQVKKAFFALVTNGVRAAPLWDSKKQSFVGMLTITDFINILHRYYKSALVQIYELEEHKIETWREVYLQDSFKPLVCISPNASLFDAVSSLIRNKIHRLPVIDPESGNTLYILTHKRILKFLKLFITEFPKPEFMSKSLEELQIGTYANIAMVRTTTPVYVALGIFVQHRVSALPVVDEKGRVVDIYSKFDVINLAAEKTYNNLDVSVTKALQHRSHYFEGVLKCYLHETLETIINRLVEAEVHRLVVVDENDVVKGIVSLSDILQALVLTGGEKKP", "experiment": "SPR", "assay_type": "binding"}, "[2]": {"biological_target": "AMPKα2β1γ1 (AMP-activated protein kinase) (Homo sapiens, UniProt P54619+P54646+Q9Y478)", "sequence (P54646 whole entry)": "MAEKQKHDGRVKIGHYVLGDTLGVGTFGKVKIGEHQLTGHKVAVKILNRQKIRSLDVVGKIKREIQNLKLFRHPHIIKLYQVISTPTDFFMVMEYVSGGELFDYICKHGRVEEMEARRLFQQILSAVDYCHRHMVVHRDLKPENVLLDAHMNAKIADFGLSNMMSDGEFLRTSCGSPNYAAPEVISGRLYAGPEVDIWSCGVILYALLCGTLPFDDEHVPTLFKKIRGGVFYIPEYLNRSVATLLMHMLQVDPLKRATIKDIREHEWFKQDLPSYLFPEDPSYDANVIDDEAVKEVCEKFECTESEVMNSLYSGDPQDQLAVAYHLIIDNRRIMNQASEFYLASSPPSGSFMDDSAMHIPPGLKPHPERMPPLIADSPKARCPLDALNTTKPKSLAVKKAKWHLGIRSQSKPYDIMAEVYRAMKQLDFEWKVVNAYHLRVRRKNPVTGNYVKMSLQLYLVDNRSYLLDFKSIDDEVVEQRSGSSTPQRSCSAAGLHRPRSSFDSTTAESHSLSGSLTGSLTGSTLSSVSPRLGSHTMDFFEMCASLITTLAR", "sequence (Q9Y478 2-270 partner)": "as the sequence (Q9Y478 2-270 partner) above", "sequence (P54619 whole entry partner)": "as the sequence (P54619 whole entry partner) above", "experiment": "SPR", "assay_type": "binding"}},
  "data": [
    {"smiles": "OC[C@H]1O[C@@H](Oc2c(O)cc(O)cc2/C=C/c2ccc(O)cc2)[C@H](O)[C@@H](O)[C@@H]1O", "note": "[TSG, 2,3,5,4′-tetrahydroxystilbene-2-O-β-D-glucoside]", "values": [
      {"measurement": "Kd", "setting": "[1]", "value": 3.77, "unit": "µM"},
      {"measurement": "Kd", "setting": "[2]", "value": 4.67, "unit": "µM"}
    ]}
  ]
}
